Assay [1] has as its target T1, dopamine (DA) reuptake sites (Rattus norvegicus, UniProt P23977).
T1 construct: Striatal tissue from the brains of male Charles River rats weighing 150-250 g; from tissue; host or cells: rat brain striatum (crude synaptosomes in A1, washed membranes in A4)
The assay can be described thus: displacement of [3H]GBR 12935 from dopamine reuptake sites, striatal membranes. In kind it is binding. To be noted: 10^-6 M test compound, [3H]GBR 12935 1 nM, one test only, read-out: DA uptake (% displacement of specific binding of tritiated ligand). The essentials:
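Rat striatal membranes (male rats, 150-250 g) incubated 90 min at 4 °C with 1 nM [3H]GBR 12935 in 50 mM Tris-HCl pH 7.4, 200 mM NaCl, 5 mM KCl; non-specific binding with 1 μM mazindol. Filtration, scintillation counting; value is % displacement of specific binding at 10^-6 M, single test; IA means <50%.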

The target of assay [2] is T2, 5-hydroxytryptamine (5-HT) reuptake sites (Rattus norvegicus, UniProt P31652).
T2 construct: Frontal cortical tissue from the brains of male Sprague-Dawley rats; from tissue; host or cells: rat brain frontal cortex (crude synaptosomes in A2, washed membranes in A5)
The assay can be described thus: displacement of [3H]paroxetine from 5-HT reuptake sites, frontal cortical membranes. The assay is classed as binding. The settings on record: 10^-6 M test compound, [3H]paroxetine 30 pM, one test only, read-out: 5-HT uptake (% displacement of specific binding of tritiated ligand). A digest of the protocol: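 Rat frontal cortex membranes (male, 150-250 g; 2 mg wet tissue/tube) in 50 mM Tris-HCl pH 7.5 with 120 mM NaCl and 5 mM KCl, incubated 2 h at 22 °C with 30 pM [3H]paroxetine and compound at 10^-6 M. Citalopram 1 μM defined non-specific binding; values are % displacement of specific binding from a single test, filtration and scintillation counting.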

Assay [3] deals with T3, noradrenaline (NA) reuptake sites (Rattus norvegicus, UniProt Q63380).
T3 construct: Frontal cortical tissue from the brains of male Sprague-Dawley rats; from tissue; host or cells: rat brain frontal cortex (crude synaptosomes in A3, washed membranes in A6)
The assay can be described thus: displacement of [3H]nisoxetine from noradrenaline reuptake sites, frontal cortical membranes. To be noted: 10^-6 M test compound, [3H]nisoxetine 0.6 nM, one test only, read-out: NA uptake (% displacement of specific binding of tritiated ligand). The essentials:
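Washed male rat frontal cortex membranes in 50 mM Tris pH 7.4, 300 mM NaCl, 5 mM KCl, incubated 4 h at 4 °C with 0.6 nM [3H]nisoxetine and test compound at 10^-6 M; mazindol (1 μM) defined non-specific binding. Filtration, scintillation counting; % displacement of specific binding, single test.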

This note sets out measurements from patent US6187802A, “Substituted 4-arylmethylene-2-imino-2,3-dihydrothiazoles and derivatives and their pharmaceutical use” (Knoll Aktiengesellschaft, priority 1997, dated 2001).

Counter-ions that a name gives are not always drawn. Some results are limits rather than exact numbers.

T1 sequence (P23977 whole entry): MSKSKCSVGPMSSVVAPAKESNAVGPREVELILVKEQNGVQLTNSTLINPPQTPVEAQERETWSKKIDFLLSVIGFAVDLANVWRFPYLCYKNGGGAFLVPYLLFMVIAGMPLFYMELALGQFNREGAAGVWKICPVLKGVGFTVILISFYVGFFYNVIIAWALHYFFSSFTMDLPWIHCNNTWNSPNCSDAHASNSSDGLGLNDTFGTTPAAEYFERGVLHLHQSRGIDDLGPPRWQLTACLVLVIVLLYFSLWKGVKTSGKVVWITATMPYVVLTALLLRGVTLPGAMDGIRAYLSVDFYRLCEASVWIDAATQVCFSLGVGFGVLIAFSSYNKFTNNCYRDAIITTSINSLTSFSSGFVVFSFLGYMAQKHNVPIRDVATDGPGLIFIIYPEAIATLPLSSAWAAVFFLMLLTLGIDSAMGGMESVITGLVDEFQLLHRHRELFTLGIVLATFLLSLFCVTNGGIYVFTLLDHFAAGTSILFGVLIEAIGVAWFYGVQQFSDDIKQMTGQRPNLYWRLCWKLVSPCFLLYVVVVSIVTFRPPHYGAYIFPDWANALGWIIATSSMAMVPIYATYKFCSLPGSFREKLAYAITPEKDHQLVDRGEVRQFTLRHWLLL
T2 sequence (P31652 whole entry): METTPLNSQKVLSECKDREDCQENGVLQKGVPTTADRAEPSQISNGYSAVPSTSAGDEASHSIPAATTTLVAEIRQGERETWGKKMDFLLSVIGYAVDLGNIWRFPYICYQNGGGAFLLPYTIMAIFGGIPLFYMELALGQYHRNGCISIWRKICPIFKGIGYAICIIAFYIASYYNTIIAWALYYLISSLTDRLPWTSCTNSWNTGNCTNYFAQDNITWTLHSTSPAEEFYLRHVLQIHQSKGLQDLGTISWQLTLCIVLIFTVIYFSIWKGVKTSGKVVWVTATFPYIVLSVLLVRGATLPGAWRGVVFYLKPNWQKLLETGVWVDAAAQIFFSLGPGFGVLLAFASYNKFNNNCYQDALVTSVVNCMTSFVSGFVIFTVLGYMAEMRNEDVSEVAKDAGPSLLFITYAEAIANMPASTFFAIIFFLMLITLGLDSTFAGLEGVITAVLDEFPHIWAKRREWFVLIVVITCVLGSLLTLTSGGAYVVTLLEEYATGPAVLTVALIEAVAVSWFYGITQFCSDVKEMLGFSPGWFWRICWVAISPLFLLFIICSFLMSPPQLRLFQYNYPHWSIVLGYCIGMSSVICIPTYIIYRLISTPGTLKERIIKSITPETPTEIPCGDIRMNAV
T3 sequence (Q63380 1-617): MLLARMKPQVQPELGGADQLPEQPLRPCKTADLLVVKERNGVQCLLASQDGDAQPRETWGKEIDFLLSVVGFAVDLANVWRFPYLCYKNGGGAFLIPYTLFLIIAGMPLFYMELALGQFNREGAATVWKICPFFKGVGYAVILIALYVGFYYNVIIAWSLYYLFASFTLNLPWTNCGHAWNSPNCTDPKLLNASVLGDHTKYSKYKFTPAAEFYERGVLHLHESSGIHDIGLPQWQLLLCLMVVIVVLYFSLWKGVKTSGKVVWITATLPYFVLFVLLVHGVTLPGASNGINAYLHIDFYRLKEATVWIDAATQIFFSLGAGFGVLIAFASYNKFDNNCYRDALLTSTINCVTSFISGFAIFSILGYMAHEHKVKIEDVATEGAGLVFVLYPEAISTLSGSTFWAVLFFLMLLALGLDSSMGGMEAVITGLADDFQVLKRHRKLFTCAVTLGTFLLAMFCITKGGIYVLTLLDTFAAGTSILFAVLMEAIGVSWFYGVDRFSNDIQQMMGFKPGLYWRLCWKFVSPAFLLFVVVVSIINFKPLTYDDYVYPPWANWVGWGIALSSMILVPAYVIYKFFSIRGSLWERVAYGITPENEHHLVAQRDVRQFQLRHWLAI

With `CC(C)(C1=CSC2=NCCN12)c1ccc(Cl)c(Cl)c1` [Example 11, 3-[1-(3,4-dichlorophenyl)-1-methylethyl]-5,6-dihydroimidazo[2,1-b]-thiazole hydrobromide], the inhibition at 1 µM in assay [1] was 102%; in assay [2], 57%; in assay [3] it was below 50%.

On to `COc1ccc(CCN=c2scc(C(C)(C)c3ccc(Cl)c(Cl)c3)n2CCc2ccc(OC)c(OC)c2)cc1OC` [Example 69, 4-[l-(3,4-Dichlorophenyl)-1-methylethyl]-3-(3,4-dimethoxyphenethyl)-2-(3,4-dimethoxyphenethylimino)-2,3-dihydrothiazole hydrobromide], for which the inhibition at 1 µM is 58% in assay [1], below 50% in assay [2] and below 50% in assay [3].

As for `CCCCN=c1scc(C2(c3ccc(Oc4ccccc4)cc3)CCC2)n1CCCC` [Example 59, 3-Butyl-2-butylimino-4-[1-(4-phenoxyphenyl)cyclobutyl]-2,3-dihydrothiazole hydrobromide], the inhibition at 1 µM was 73% in assay [1], below 50% in assay [2] and below 50% in assay [3].

In the case of `CC(C)CN=c1scc(C2(c3ccc4ccccc4c3)CCC2)n1CC(C)C` [Example 41, 3-lsobutyl-2-isobutylimino-4-[1-(2-naphthyl)cyclobutyl]-2,3-dihydrothiazolehydrobromide], the results for the inhibition at 1 µM in assay [1], in assay [2] and in assay [3] were 107%, 98% and 79%, respectively.

For the compound `CCCCN=c1scc(C2(c3ccc(SC)cc3)CCC2)n1CCCC` [Example 58, 3-Butyl-2-butylimino-4-[1-(4-methylthiophenyl)cyclobutyl]-2,3-dihydrothiazole hydrobromide], the inhibition at 1 µM in assay [1] is 92%; in assay [2], below 50%; in assay [3], below 50%.

Take `c1ccc(N=c2scc(C3(c4ccc5ccccc5c4)CCC3)n2-c2ccccc2)cc1` [Example 49, 4-[1-(2-Naphthyl)cyclobutyl]-3-phenyl-2-phenylimino-2,3-dihydrothiazole hydrobromide]: the inhibition at 1 µM is 69% in assay [1], 56% in assay [2] and below 50% in assay [3].

On to `C1=C(C2(c3ccc4ccccc4c3)CCC2)N2CCCN=C2S1` [Example 34, 3-[1-(2-Naphthyl)cyclobutyl]-6,7-dihydro-5H-thiazolo[3,2-a]pyrimidine hydrobromide], for which the inhibition at 1 µM in assay [1] is 109%; in assay [2] it was 100%; in assay [3], 110%.

As for `C1=C(C2(c3ccccc3)CCCCC2)N2CCN=C2S1` [Example 72, 3-(1-Phenylcyclohexyl)-5,6-dihydroimidazo[2,1-b]thiazole hydrobromide], the inhibition at 1 µM was 70% in assay [1], below 50% in assay [2] and below 50% in assay [3].

Turning to `Fc1ccc(CN=c2scc(C3(c4ccc5ccccc5c4)CCC3)n2Cc2ccc(F)cc2)cc1` [Example 45, 3-(4-Fluorobenzyl)-2-(4-fluorobenzylimino)-4-[1-(2-naphthyl)cyclobutyl]-2,3-dihydrothiazole hydrobromide], the inhibition at 1 µM in assay [1] is 96%; in assay [2] it was 59%; in assay [3], below 50%.

As for `CCOc1ccc(N=c2scc(C3(c4ccc5ccccc5c4)CCC3)n2-c2ccc(OCC)cc2)cc1` [Example 54, 3-(4-Ethoxyphenyl)-2-(4-ethoxyphenylimino)-4-[1-(2-naphthyl)cyclobutyl]-2,3-dihydrothiazole hydrobromide], the values for the inhibition at 1 µM in assay [1], in assay [2] and in assay [3] were 69%, below 50% and below 50%, respectively.

In the case of `Clc1ccc(C2(c3csc(=NCCc4ccccc4)n3CCc3ccccc3)CCC2)cc1` [Example 64, 4-[1-(4-Chlorophenyl)cyclobutyl]-3-phenethyl-2-phenethylimino-2,3-dihydrothiazole hydrobromide], the inhibition at 1 µM in assay [1] was 102%; in assay [2], below 50%; in assay [3], below 50%.

Take `c1cncc(CN=c2scc(C3(c4ccc5ccccc5c4)CCC3)n2Cc2cccnc2)c1` [Example 47, 4-[1-(2-Naphthyl)cyclobutyl]-3-(3-pyridylmethyl)-2-(3-pyridylmethylimino)-2,3-dihydrothiazole hydrobromide]: the inhibition at 1 µM in assay [1] is 109%; in assay [2] it was 99%; in assay [3] it was 92%.

`FC(F)(F)c1cccc(N=c2scc(C3(c4ccc(Cl)c(Cl)c4)CCC3)n2-c2cccc(C(F)(F)F)c2)c1` [Example 30, 4-[1-(3,4-Dichlorophenyl)cyclobutyl]-3-(3-trifluoromethylphenyl)-2-(3-trifluoromethylphenylimino)-2,3-dihydrothiazole hydrobromide]: the results for the inhibition at 1 µM in assay [1], in assay [2] and in assay [3] were 79%, below 50% and below 50%, respectively.

Take `Clc1ccc(C2(c3csc(=NCc4ccco4)n3Cc3ccco3)CCC2)cc1Cl` [Example 26, 4-[1-(3,4-Dichlorophenyl)cyclobutyl]-3-furfuryl-2-furfurylimino-2,3-dihydrothiazole hydrobromide]: the figures for the inhibition at 1 µM in assay [1], in assay [2] and in assay [3] were 116%, 92% and below 50%, respectively.

For the compound `CC(C)N=c1scc(C2(c3ccc(Cl)c(Cl)c3)CCC2)n1C(C)C` [Example 17, 4-[1-(3,4-Dichlorophenyl)cyclobutyl]-3-isopropyl-2-isopropylimino-2,3-dihydrothiazole hydrobromide], the inhibition at 1 µM came out at 112% in assay [1], 95% in assay [2] and 63% in assay [3].

Consider `Fc1cccc(C2(C3=CSC4=NCCN34)CCC2)c1` [Example 75, 3-[1-(3-Fluorophenyl)cyclobutyl]-5,6-dihydroimidazo[2,1-b]thiazole hydrobromide], for which the inhibition at 1 µM in assay [1] was below 50%; in assay [2], 53%; in assay [3] it was below 50%.

On to `Clc1ccc(C2(c3csc(=Nc4ccccc4)n3-c3ccccc3)CCC2)cc1Cl` [Example 27, 4-[1-(3,4-Dichlorophenyl)cyclobutyl]-3-phenyl-2-phenylimino-2,3-dihydrothiazole hydrobromide], for which the inhibition at 1 µM is 84% in assay [1], below 50% in assay [2] and below 50% in assay [3].

On to `COc1ccc(CCN=c2scc(C3(c4ccc(Cl)cc4)CCCC3)n2CCc2ccc(OC)c(OC)c2)cc1OC` [Example 67, 4-[1-(4-Chlorophenyl)cyclopentyl]-3-(3,4-dimethoxyphenethyl)-2-(3,4-dimethoxyphenethylimino)-2,3-dihydrothiazole hydrobromide], for which the inhibition at 1 µM was 88% in assay [1], below 50% in assay [2] and below 50% in assay [3].

As for `CCCCN=c1scc(C2(c3ccc(Cl)cc3)CCCC2)n1CCCC` [Example 60, 3-Butyl-2-butylimino-4-[1-(4-chlorophenyl)cyclopentyl]-2,3-dihydrothiazole hydrobromide], the inhibition at 1 µM in assay [1] was 106%; in assay [2], below 50%; in assay [3], below 50%.

Turning to `Clc1ccc(C2(C3=C(c4ccccc4)SC4=NCCN43)CCC2)cc1Cl` [Example 9, 3-[1-(3,4-dichlorophenyl)cyclobutyl]-2-phenyl-5,6-dihydroimidazo[2,1-b]thiazole hydrobromide], the inhibition at 1 µM in assay [1] was 60%; in assay [2] it was 75%; in assay [3] it was below 50%.

`CCOc1ccc(N=c2scc(C3(c4ccc(Cl)c(Cl)c4)CCC3)n2-c2ccc(OCC)cc2)cc1` [Example 32, 4-[1-(3,4-Dichlorophenyl)cyclobutyl]-3-(4-ethoxyphenyl)-2-(4-ethoxyphenylimino)-2,3-dihydrothiazole hydrobromide]: the inhibition at 1 µM in assay [1] is 69%; in assay [2], below 50%; in assay [3] it was below 50%.

For the compound `CCCCN=c1scc(C2(c3ccc(Br)cc3)CCC2)n1CCCC` [Example 57, 4-[1-(4-Bromophenyl)cyclobutyl]-3-butyl-2-butylimino-2,3-dihydrothiazole hydrobromide], the inhibition at 1 µM in assay [1] is 94%; in assay [2], below 50%; in assay [3], below 50%.

With `CCCCN=c1scc(C(C)(C)c2ccc(Cl)c(Cl)c2)n1CCCC` [Example 63, 3-Butyl-2-butylimino-4-[1-(3,4-dichlorophenyl)-1-methylethyl]-2,3-dihydrothiazole hydrobromide], the inhibition at 1 µM is 107% in assay [1], 52% in assay [2] and below 50% in assay [3].
